Source: ChEMBL document CHEMBL4732194, “Indolyl-α-keto-1,3,4-oxadiazoles: Synthesis, anti-cell proliferation activity, and inhibition of tubulin polymerization” (Bioorg Med Chem Lett, 2021)
The source made the active and inactive calls. No cut-off for these calls is given here.

How the values were obtained:
U-937 [1] = test: Antiproliferative activity against human U-937 cells assessed as cell survival at 10 uM (reference value: 100 +/ 8.7 %); type: functional; settings: read-out: Activity
Jurkat [2] = test: Antiproliferative activity against human Jurkat cells assessed as cell survival at 10 uM (reference value: 104.3 +/ 10.2 %); type: functional; settings: read-out: Activity
BT-474 [3] = test: Antiproliferative activity against human BT-474 cells assessed as cell survival at 10 uM (reference value: 100 +/ 6.3 %); type: functional; settings: read-out: Activity
[4] = Antiproliferative activity against human SMS-SB cells assessed as cell survival at 10 uM (reference value: 100 +/ 6 %); type: functional; settings: read-out: Activity
[5] = Inhibition of calf brain tubulin polymerization assessed as disruption of microtubule assembly measured after 20 mins in presence of GTP by turbidometric analysis; type: tissue-based, Bos taurus
MCF7 = test: Antiproliferative activity against estrogen-sensitive human MCF7 cells assessed as cell growth inhibition measured after 4 days by crystal violet staining based assay; type: functional; settings: MCF7, 96 h
[6] = Inhibition of porcine brain tubulin polymerization assessed as disruption of microtubule assembly measured after 1.5 hrs in presence of GTP by fluorescence based analysis; type: tissue-based, Sus scrofa
Jurkat [7] = test: Induction of apoptotic cell death in human Jurkat cells assessed as activation of caspase 3/7 by fluorescence assay relative to control; type: functional
U-937 [8] = test: Antiproliferative activity against human U-937 cells assessed as inhibition of cell proliferation; type: functional, cell-based
Jurkat [9] = test: Antiproliferative activity against human Jurkat cells assessed as inhibition of cell proliferation; type: functional, cell-based
BT-474 [10] = test: Antiproliferative activity against human BT-474 cells assessed as inhibition of cell proliferation; type: functional, cell-based
[11] = Antiproliferative activity against human SMS-SB cells assessed as inhibition of cell proliferation; type: functional, cell-based
Jurkat [12] = test: Cytotoxicity against human Jurkat cells assessed as cell membrane damage by LDH assay; type: functional, cell-based
Jurkat [13] = test: Induction of apoptotic cell death in human Jurkat cells assessed as activation of caspase 3/7 at 3 uM by fluorescence assay relative to control; type: functional
Tubulin (Homo sapiens) = Tubulin (Homo sapiens) (UniProt P68371+Q9H4B7+P0DPH7+P68366+Q13509+Q71U36+P04350+Q3ZCM7+P07437+P68363+Q9BQE3+Q6PEY2+Q13885+Q9BVA1+Q9BUF5); test: (§1) Inhibition of tubulin polymerization (unknown origin) assessed as inhibition of microtubule formation; type: protein-complex assay
Tubulin = test: as §1; type: protein-complex assay, Homo sapiens

## O=C(Nc1ccncc1)C(=O)c1cn(Cc2ccc(Cl)cc2)c2ccccc12 [INDIBULIN]
U-937 [1]
  viability at 10 µM: 27.1%
Jurkat [2]
  viability at 10 µM: 31.6%
BT-474 [3]
  viability at 10 µM: 40.9%
[4]
  viability at 10 µM: 32.9%

## COc1ccc(-c2[nH]c3cc(OC)ccc3c2C=O)cc1
[5]
  IC50: 1500 nM
MCF7
  IC50: 35 nM

## COc1cc(C(=O)c2nnc(-c3cc4ccccc4[nH]3)o2)cc(OC)c1OC
U-937 [1]
  viability at 10 µM: 91.2%
Jurkat [2]
  viability at 10 µM: 44.9%
BT-474 [3]
  viability at 10 µM: 111%
[4]
  viability at 10 µM: 35.7%

## COc1ccc2[nH]cc(-c3nnc(C(=O)c4cc(OC)c(OC)c(OC)c4)o3)c2c1
U-937 [1]
  viability at 10 µM: 85.5%
Jurkat [2]
  viability at 10 µM: 88.9%
BT-474 [3]
  viability at 10 µM: 54%
[4]
  viability at 10 µM: 74.3%

## O=C(c1ccccc1)c1nnc(-c2cn(Cc3ccc(Cl)cc3)c3ccccc23)o1
U-937 [1]
  viability at 10 µM: 85%
Jurkat [2]
  viability at 10 µM: 82%
BT-474 [3]
  viability at 10 µM: 68.9%
[4]
  viability at 10 µM: 87.9%

## COc1cc(C(=O)c2nnc(-c3c[nH]c4ccc(Br)cc34)o2)cc(OC)c1OC
U-937 [1]
  viability at 10 µM: 92.1%
Jurkat [2]
  viability at 10 µM: 77.4%
BT-474 [3]
  viability at 10 µM: 56.8%
[4]
  viability at 10 µM: 70.9%

## COc1cc(C(=O)c2nnc(-c3cn(Cc4ccc(Cl)cc4)c4ccccc34)o2)cc(OC)c1OC
U-937 [1]
  viability at 10 µM: 86%
Jurkat [2]
  viability at 10 µM: 80.6%
BT-474 [3]
  viability at 10 µM: 68.5%
[4]
  viability at 10 µM: 96.2%

## Cc1ccc(C(=O)c2nnc(-c3c[nH]c4ccccc34)o2)cc1
U-937 [1]
  viability at 10 µM: 102%
Jurkat [2]
  viability at 10 µM: 78.9%
BT-474 [3]
  viability at 10 µM: 67.9%
[4]
  viability at 10 µM: 66.8%

## COc1ccc(C(=O)c2nnc(-c3c[nH]c4ccccc34)o2)cc1
U-937 [1]
  viability at 10 µM: 108%
Jurkat [2]
  viability at 10 µM: 99.6%
BT-474 [3]
  viability at 10 µM: 88.4%
[4]
  viability at 10 µM: 96.2%

## COc1ccc(C(=O)c2nnc(-c3cc4ccccc4[nH]3)o2)cc1
U-937 [1]
  viability at 10 µM: 84.1%
Jurkat [2]
  viability at 10 µM: 75.1%
BT-474 [3]
  viability at 10 µM: 56.1%
[4]
  viability at 10 µM: 79.9%

## COc1cc(/C=C/c2nnc(-c3cc(-c4ccc(Cl)cc4)n[nH]3)o2)cc(OC)c1OC
[6]
  IC50: 1300 nM

## COc1ccc(C(=O)c2nnc(-c3cc4ccccc4[nH]3)o2)cc1OC
U-937 [1]
  viability at 10 µM: 75.2%
Jurkat [2]
  viability at 10 µM: 67.4%
BT-474 [3]
  viability at 10 µM: 67.4%
[4]
  viability at 10 µM: 76.1%

## COc1ccc(C(=O)c2nnc(-c3c[nH]c4ccc(OC)cc34)o2)cc1
U-937 [1]
  viability at 10 µM: 98.7%
Jurkat [2]
  viability at 10 µM: 99.9%
BT-474 [3]
  viability at 10 µM: 70.3%
[4]
  viability at 10 µM: 70.7%

## O=C(c1ccccc1)c1nnc(-c2c[nH]c3ccccc23)o1
U-937 [1]
  viability at 10 µM: 98.7%
Jurkat [2]
  viability at 10 µM: 82.1%
BT-474 [3]
  viability at 10 µM: 59.3%
[4]
  viability at 10 µM: 87.6%

## O=C(c1ccc(F)cc1)c1nnc(-c2c[nH]c3ccccc23)o1
U-937 [1]
  viability at 10 µM: 95.3%
Jurkat [2]
  viability at 10 µM: 90.9%
BT-474 [3]
  viability at 10 µM: 62.3%
[4]
  viability at 10 µM: 76.8%

## COc1ccc(C(=O)c2nnc(-c3c[nH]c4ccc(Br)cc34)o2)cc1
U-937 [1]
  viability at 10 µM: 105%
Jurkat [2]
  viability at 10 µM: 88.8%
BT-474 [3]
  viability at 10 µM: 65.8%
[4]
  viability at 10 µM: 94.8%

## COc1ccc(C(=O)c2nnc(-c3c[nH]c4cc(F)ccc34)o2)cc1
U-937 [1]
  viability at 10 µM: 108%
Jurkat [2]
  viability at 10 µM: 86.4%
BT-474 [3]
  viability at 10 µM: 72.6%
[4]
  viability at 10 µM: 101%

## COc1cccc2c1C(=O)c1c(O)c3c(c(O)c1C2=O)C[C@@](O)(C(=O)CO)C[C@@H]3O[C@H]1C[C@H](N)[C@H](O)[C@H](C)O1 [DOXORUBICIN]
U-937 [1]
  viability at 10 µM: 22.9%
Jurkat [2]
  viability at 10 µM: 30.1%
BT-474 [3]
  viability at 10 µM: 31.8%
[4]
  viability at 10 µM: 15.1%
Jurkat [7]
  fold change (FC): 8

## COc1ccc(C(=O)c2nnc(-c3c[nH]c4ccccc34)o2)cc1OC
U-937 [1]
  viability at 10 µM: 90.3%
Jurkat [2]
  viability at 10 µM: 92.5%
BT-474 [3]
  viability at 10 µM: 70.2%
[4]
  viability at 10 µM: 93.5%

## COc1cc(C(=O)c2nnc(-c3c[nH]c4ccccc34)o2)cc(OC)c1OC
U-937 [1]
  viability at 10 µM: 27.5%
Jurkat [2]
  viability at 10 µM: 35.2%
BT-474 [3]
  viability at 10 µM: 41.1%
[4]
  viability at 10 µM: 11.6%
U-937 [8]
  IC50: 7100 nM
Jurkat [9]
  IC50: 3100 nM
BT-474 [10]
  IC50: 4100 nM
[11]
  IC50: 800 nM
Jurkat [12]
  Activity: inactive
Jurkat [13]
  fold change (FC): 9
Tubulin (Homo sapiens)
  inhibition: Dose-dependent effect
Tubulin
  IC50: 10700 nM
